Among the data in paper PMC5967645 (European scientific journal, 2017) are IC50 values, retold here.

The experiment concerns calpain. The experiment can be described thus: immunoblot of calcium-induced calpain-mediated spectrin breakdown product. In kind it is biochemical, Rattus norvegicus.

As a reminder, the IC50 is the concentration needed to halve the response being measured. For `CCOC(=O)[C@H]1O[C@@H]1C(=O)N[C@@H](CC(C)C)C(=O)NCCC(C)C` [E64d, 2S,3S-trans-epoxysuccinyl-L-leucylamido-3-methylbutane ethyl ester], the IC50 was 3 to 6 µM.
